{"source": "PubChem BioAssay AID272", "about": "(DTP/NCI, 2004)", "tested_on": "Lewis lung carcinoma i.m., BDF1 mice, T/C %", "experiment": "NCI In Vivo Anticancer Drug Screen. Data for tumor model Lewis Lung Carcinoma (intramuscular) in B6D2F1 (BDF1) mice", "conditions": "schedule: Q01DX011 (ip)", "method_in_brief": "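Antitumour activity is assessed in transplanted-tumour mice. Endpoint is survival or tumour size, normalised to vehicle-dosed controls (T/C).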", "note": "Where “and” joins values, the source holds several entries; their conditions need not be identical. Equal entries are not always repeated. Inconclusive results are not listed."}
{"smiles": "CN(C)c1nc(N(C)C)nc(N(C)C)n1", "values": [{"measurement": "T/C", "setting": "endpoint: mean tumor weight (est.), dose: 25.0 mg/kg/injection, vehicle: saline with Tween-80, higher = larger tumour", "value": "68 % of control"}, {"measurement": "T/C", "setting": "endpoint: mean tumor weight (est.), dose: 50.0 mg/kg/injection, vehicle: saline with Tween-80, higher = larger tumour", "value": "97 % of control"}, {"measurement": "T/C", "setting": "endpoint: mean tumor weight (est.), dose: 100.0 mg/kg/injection, vehicle: saline with Tween-80, higher = larger tumour", "value": "37 % of control"}, {"measurement": "T/C", "setting": "endpoint: mean tumor weight, dose: 62.5 mg/kg/injection, vehicle: steriod suspending solution, higher = larger tumour", "value": "68 % of control"}, {"measurement": "T/C", "setting": "endpoint: mean tumor weight, dose: 125.0 mg/kg/injection, vehicle: steriod suspending solution, higher = larger tumour", "value": "63 % of control"}, {"measurement": "T/C", "setting": "endpoint: median survival time, dose: 62.5 mg/kg/injection, vehicle: steriod suspending solution, higher = longer survival", "value": "100 % of control"}, {"measurement": "T/C", "setting": "endpoint: median survival time, dose: 125.0 mg/kg/injection, vehicle: steriod suspending solution, higher = longer survival", "value": "104 % of control"}]}
{"smiles": "CCN(CC)CCN1C(=O)c2cccc3cccc(c23)C1=O", "values": [{"measurement": "T/C", "setting": "endpoint: mean tumor weight (est.), dose: 27.5 mg/kg/injection, vehicle: saline, higher = larger tumour", "value": "76 % of control"}, {"measurement": "T/C", "setting": "endpoint: mean tumor weight (est.), dose: 55.0 mg/kg/injection, vehicle: saline, higher = larger tumour", "value": "55 % of control"}, {"measurement": "T/C", "setting": "endpoint: mean tumor weight (est.), dose: 110.0 mg/kg/injection, vehicle: saline, higher = larger tumour", "value": "64 % of control"}]}
{"smiles": "CC[C@](O)(C(=O)O)c1cc2n(c(=O)c1CO)Cc1cc3ccccc3nc1-2", "values": [{"measurement": "T/C", "setting": "endpoint: mean tumor weight, dose: 0.06 mg/kg/injection, vehicle: saline, higher = larger tumour", "value": "95 % of control"}, {"measurement": "T/C", "setting": "endpoint: mean tumor weight, dose: 0.12 mg/kg/injection, vehicle: saline, higher = larger tumour", "value": "96 % of control"}, {"measurement": "T/C", "setting": "endpoint: mean tumor weight, dose: 0.25 mg/kg/injection, vehicle: saline, higher = larger tumour", "value": "101 % of control"}, {"measurement": "T/C", "setting": "endpoint: mean tumor weight, dose: 0.5 mg/kg/injection, vehicle: saline, higher = larger tumour", "value": "91 % of control"}, {"measurement": "T/C", "setting": "endpoint: mean tumor weight, dose: 1.0 mg/kg/injection, vehicle: saline, higher = larger tumour", "value": "106 % of control"}, {"measurement": "T/C", "setting": "endpoint: median survival time, dose: 0.06 mg/kg/injection, vehicle: saline, higher = longer survival", "value": "105 % of control"}, {"measurement": "T/C", "setting": "endpoint: median survival time, dose: 0.12 mg/kg/injection, vehicle: saline, higher = longer survival", "value": "116 % of control"}, {"measurement": "T/C", "setting": "endpoint: median survival time, dose: 0.5 mg/kg/injection, vehicle: saline, higher = longer survival", "value": "118 % of control"}, {"measurement": "T/C", "setting": "endpoint: median survival time, dose: 1.0 mg/kg/injection, vehicle: saline, higher = longer survival", "value": "102 % of control and 113 % of control and 124 % of control"}, {"measurement": "T/C", "setting": "endpoint: median survival time, dose: 2.0 mg/kg/injection, vehicle: saline, higher = longer survival", "value": "214 % of control"}]}
{"smiles": "CC(=O)[C@@]1(O)CC[C@H]2[C@@H]3C[C@H](C)C4=CC(=O)C=C[C@]4(C)[C@@]3(F)[C@@H](O)C[C@@]21C", "values": [{"measurement": "T/C", "setting": "endpoint: mean tumor weight, dose: 12.5 mg/kg/injection, vehicle: steriod suspending solution, higher = larger tumour", "value": "40 % of control"}, {"measurement": "T/C", "setting": "endpoint: mean tumor weight, dose: 25.0 mg/kg/injection, vehicle: steriod suspending solution, higher = larger tumour", "value": "26 % of control"}, {"measurement": "T/C", "setting": "endpoint: mean tumor weight, dose: 50.0 mg/kg/injection, vehicle: steriod suspending solution, higher = larger tumour", "value": "19 % of control"}, {"measurement": "T/C", "setting": "endpoint: median survival time, dose: 12.5 mg/kg/injection, vehicle: steriod suspending solution, higher = longer survival", "value": "107 % of control"}, {"measurement": "T/C", "setting": "endpoint: median survival time, dose: 25.0 mg/kg/injection, vehicle: steriod suspending solution, higher = longer survival", "value": "94 % of control and 112 % of control"}]}
{"smiles": "Cc1ccc2c(C)c3c(ccc4ccccc43)c[n+]2c1", "values": [{"measurement": "T/C", "setting": "endpoint: mean tumor weight (est.), dose: 1.25 mg/kg/injection, vehicle: saline, higher = larger tumour", "value": "87 % of control"}, {"measurement": "T/C", "setting": "endpoint: mean tumor weight (est.), dose: 2.5 mg/kg/injection, vehicle: saline, higher = larger tumour", "value": "96 % of control"}, {"measurement": "T/C", "setting": "endpoint: mean tumor weight (est.), dose: 5.0 mg/kg/injection, vehicle: saline, higher = larger tumour", "value": "72 % of control"}, {"measurement": "T/C", "setting": "endpoint: median survival time, dose: 1.25 mg/kg/injection, vehicle: saline, higher = longer survival", "value": "106 % of control"}, {"measurement": "T/C", "setting": "endpoint: median survival time, dose: 2.5 mg/kg/injection, vehicle: saline, higher = longer survival", "value": "110 % of control"}, {"measurement": "T/C", "setting": "endpoint: median survival time, dose: 5.0 mg/kg/injection, vehicle: saline, higher = longer survival", "value": "100 % of control"}]}
